Several values for one entry are separate records, joined by “and”; a condition that tells them apart may be missing. Identical values can stand only once.
Legend:
[1] = test system: LNCaP tumor-transplanted mouse; test: Internal radioactivity distribution using LNCaP tumor-transplanted mouse; assay type: in vivo
Outline: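 Male SCID mice bearing subcutaneous LNCaP or PC-3 xenografts (40–60 days) received the 111In-labelled compound i.v. via tail vein (185–259 kBq in saline; n=2–3). Blood and organs collected at 1 to 192 hours post-dose, weighed and counted. Uptake expressed as %ID/g.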

[2] = test system: PC-3 tumor-transplanted mouse; test: Internal radioactivity distribution using PC-3 tumor-transplanted mouse; assay type: in vivo
Procedure: (§1) The animal test was performed in compliance with the guidelines of Kyoto University Animal Experiment Committee. Male CB17/IcrJcl-Prkdc^scid mice were purchased from CLEA Japan, Inc. The animals were kept under 12 h/12 h, day/night cycle conditions and fed ad libitum with food and water. LNCaP cells (1.0×10^7 cells/mouse) or PC-3 cells (1.0×10^7 cells/mouse) were suspended in a mixture of PBS and Matrigel manufactured by Corning Life Sciences (1:1, 150 μL) and the suspension was subcutaneously transplanted to the right shoulder of mice under isoflurane anesthesia. Thereafter, the mice were kept for 40 to 60 days.
LNCaP or PC-3 tumor-implanted mice were administered saline solutions (185 kBq, 100 μL) of [^111In]In-PSMA-DA1 or [^111In]In-PSMA-DB from the tail vein (n=3 each). Mice were euthanized 1, 4, 24, 48, 96, and 192 hours after administration. Thereafter, blood and each organ were recovered, and the mass and radioactivity of the organs were measured.
The percentage (% ID) of the radioactivity amount to the administered radioactivity amount (injected dose) is shown as the value (% ID/g) divided by the blood mass or the organ mass (g).
as §1, with “LNCaP cells (4.3×10^6 cells/mouse) or” for “LNCaP cells (1.0×10^7 cells/mouse) or”, “PC-3 cells (3.3×10^6 cells/mouse) were” for “PC-3 cells (1.0×10^7 cells/mouse) were”, “shoulder of CB17/IcrJcl-Prkdc^scid mice under” for “shoulder of mice under”
Mice were euthanized 1, 4, 24, 48, 96, and 192 hours after administration. Thereafter, blood and each organ were recovered, and the mass and radioactivity of the organs were measured.
The results are shown in Table 13 (Mean value±standard deviation, n=3).

[3] = 24 h after administration, PC-3 tumor-transplanted mice

Work on `O=C([O-])CN1CCN(C(CCC(=O)NCCCC[C@H](NC(=O)N[C@@H](CCC(=O)O)C(=O)O)C(=O)O)C(=O)[O-])CCN(CC(=O)[O-])CCN(C(CCC(=O)N[C@@H](CCCCNC(=O)CCCc2ccc(I)cc2)C(=O)O)C(=O)[O-])CC1.[111In+3]` (stereo partly drawn) [[^111In]In-PSMA-DA1] yielded a Blood ([1]; 1 h after administration) of 31.1 ± 3.99 % ID/g, a Brain ([1]; 1 h after administration) of 0.56 ± 0.06 % ID/g and a Heart ([1]; 1 h after administration) of 7.93 ± 2.10 % ID/g. For the same molecule, the Intestine ([1]; 1 h after administration) was 2.63 ± 0.42 % ID/g, the Kidney ([1]; 1 h after administration) was 34.3 ± 7.79 % ID/g and the “LNCaP Tumor” value ([1]; 1 h after administration) was 9.41 ± 2.30 % ID/g. It also gave a Liver ([1]; 1 h after administration) of 4.95 ± 0.27 % ID/g, a Lung ([1]; 1 h after administration) of 16.2 ± 3.86 % ID/g and a Muscle ([1]; 1 h after administration) of 2.02 ± 0.17 % ID/g. For the same molecule, the Pancreas ([1]; 1 h after administration) was 3.34 ± 0.40 % ID/g, the Spleen ([1]; 1 h after administration) was 8.56 ± 2.90 % ID/g and the “Stomach (% ID)” value ([1]; 1 h after administration) was 0.52 ± 0.02 % ID. It also gave a Blood ([1]; 4 h after administration) of 26.9 ± 9.56 % ID/g, a Brain ([1]; 4 h after administration) of 0.52 ± 0.15 % ID/g and a Heart ([1]; 4 h after administration) of 7.10 ± 1.82 % ID/g. For the same molecule, the Intestine ([1]; 4 h after administration) was 3.17 ± 0.73 % ID/g, the Kidney ([1]; 4 h after administration) was 63.5 ± 13.9 % ID/g and the “LNCaP Tumor” value ([1]; 4 h after administration) was 12.1 ± 4.04 % ID/g. The Liver ([1]; 4 h after administration) was 4.20 ± 1.51 % ID/g, the Lung ([1]; 4 h after administration) was 17.9 ± 6.62 % ID/g and the Muscle ([1]; 4 h after administration) was 2.15 ± 1.09 % ID/g. The Pancreas ([1]; 4 h after administration) was 2.48 ± 1.03 % ID/g, the Spleen ([1]; 4 h after administration) was 9.52 ± 4.28 % ID/g and the “Stomach (% ID)” value ([1]; 4 h after administration) was 0.51 ± 0.05 % ID. It also gave a Blood ([1]; 24 h after administration) of 14.0 ± 3.27 % ID/g, a Brain ([1]; 24 h after administration) of 0.36 ± 0.11 % ID/g and a Heart ([1]; 24 h after administration) of 4.26 ± 0.89 % ID/g. The Intestine ([1]; 24 h after administration) was 1.53 ± 0.44 % ID/g, the Kidney ([1]; 24 h after administration) was 27.1 ± 9.25 % ID/g and the “LNCaP Tumor” value ([1]; 24 h after administration) was 12.6 ± 2.15 % ID/g. For the same molecule, the Liver ([1]; 24 h after administration) was 2.64 ± 0.38 % ID/g, the Lung ([1]; 24 h after administration) was 10.5 ± 2.58 % ID/g and the Muscle ([1]; 24 h after administration) was 1.38 ± 0.39 % ID/g. The Pancreas ([1]; 24 h after administration) was 2.12 ± 0.49 % ID/g, the Spleen ([1]; 24 h after administration) was 6.01 ± 2.33 % ID/g and the “Stomach (% ID)” value ([1]; 24 h after administration) was 0.40 ± 0.09 % ID. For the same molecule, the retention in blood ([1]; 24 hours after administration) was 14.000 % ID/g, the Blood ([1]; 48 h after administration) was 4.18 ± 0.56 % ID/g and the Brain ([1]; 48 h after administration) was 0.16 ± 0.01 % ID/g. For the same molecule, the Heart ([1]; 48 h after administration) was 1.66 ± 0.23 % ID/g, the Intestine ([1]; 48 h after administration) was 0.96 ± 0.25 % ID/g and the Kidney ([1]; 48 h after administration) was 9.04 ± 2.70 % ID/g. For the same molecule, the “LNCaP Tumor” value ([1]; 48 h after administration) was 8.82 ± 1.26 % ID/g, the Liver ([1]; 48 h after administration) was 1.59 ± 0.14 % ID/g and the Lung ([1]; 48 h after administration) was 4.17 ± 0.26 % ID/g. It also gave a Muscle ([1]; 48 h after administration) of 0.54 ± 0.10 % ID/g, a Pancreas ([1]; 48 h after administration) of 1.06 ± 0.12 % ID/g and a Spleen ([1]; 48 h after administration) of 4.28 ± 0.79 % ID/g. The “Stomach (% ID)” value ([1]; 48 h after administration) was 0.25 ± 0.05 % ID, the tumor/kidney ratio ([1]; 48 hours after administration) was “exceeded 1” and the Blood ([1]; 96 h after administration) was 0.76 ± 0.58 % ID/g. The Brain ([1]; 96 h after administration) was 0.07 ± 0.03 % ID/g, the Heart ([1]; 96 h after administration) was 0.75 ± 0.33 % ID/g and the Intestine ([1]; 96 h after administration) was 0.75 ± 0.44 % ID/g. For the same molecule, the Kidney ([1]; 96 h after administration) was 3.51 ± 2.54 % ID/g, the “LNCaP Tumor” value ([1]; 96 h after administration) was 5.98 ± 1.87 % ID/g and the Liver ([1]; 96 h after administration) was 1.10 ± 0.27 % ID/g. For the same molecule, the Lung ([1]; 96 h after administration) was 1.55 ± 0.86 % ID/g, the Muscle ([1]; 96 h after administration) was 0.23 ± 0.09 % ID/g and the Pancreas ([1]; 96 h after administration) was 0.64 ± 0.24 % ID/g. The Spleen ([1]; 96 h after administration) was 2.42 ± 1.54 % ID/g, the “Stomach (% ID)” value ([1]; 96 h after administration) was 0.08 ± 0.03 % ID and the Blood ([1]; 192 h after administration) was 0.16 ± 0.03 % ID/g. For the same molecule, the Brain ([1]; 192 h after administration) was 0.05 ± 0.01 % ID/g, the Heart ([1]; 192 h after administration) was 0.41 ± 0.08 % ID/g and the Intestine ([1]; 192 h after administration) was 0.12 ± 0.03 % ID/g. The Kidney ([1]; 192 h after administration) was 1.33 ± 0.42 % ID/g, the “LNCaP Tumor” value ([1]; 192 h after administration) was 4.69 ± 1.32 % ID/g and the Liver ([1]; 192 h after administration) was 0.69 ± 0.12 % ID/g. For the same molecule, the Lung ([1]; 192 h after administration) was 0.75 ± 0.22 % ID/g, the Muscle ([1]; 192 h after administration) was 0.15 ± 0.05 % ID/g and the Pancreas ([1]; 192 h after administration) was 0.46 ± 0.08 % ID/g. The Spleen ([1]; 192 h after administration) was 2.69 ± 0.83 % ID/g, the “Stomach (% ID)” value ([1]; 192 h after administration) was 0.05 ± 0.01 % ID and the Blood [2, 3] was 5.73 ± 0.67 % ID/g. The Brain [2, 3] was 0.17 ± 0.04 % ID/g, the Heart [2, 3] was 1.90 ± 0.22 % ID/g and the Intestine [2, 3] was 1.37 ± 0.22 % ID/g. The Kidney [2, 3] was 9.56 ± 1.55 % ID/g, the Liver [2, 3] was 1.60 ± 0.12 % ID/g and the Lung [2, 3] was 4.74 ± 0.67 % ID/g. The Muscle [2, 3] was 0.59 ± 0.02 % ID/g, the “PC-3 Tumor” value [2, 3] was 2.69 ± 0.30 % ID/g and the Pancreas [2, 3] was 1.37 ± 0.04 % ID/g. The Spleen [2, 3] was 2.52 ± 0.12 % ID/g, the “Stomach (% ID)” value [2, 3] was 0.27 ± 0.08 % ID and the “accumulation at the PC-3 tumor compared with the LNCaP tumor at the same time point (in words)” value ([2]; mouse, in vivo) was “less accumulated”.

`O=C([O-])CN1CCN(C(CCC(=O)NCCC(=O)N2Cc3ccccc3-c3c(nnn3CCOCCOCCOCCOCCC(=O)NCCCC[C@H](NC(=O)N[C@@H](CCC(=O)O)C(=O)O)C(=O)O)-c3ccccc32)C(=O)[O-])CCN(CC(=O)[O-])CCN(C(CCC(=O)N[C@@H](CCCCNC(=O)CCCc2ccc(I)cc2)C(=O)O)C(=O)[O-])CC1.[111In+3]` (stereo partly drawn) [[^111In]In-PtDA] showed a Blood ([1]; 1 h after administration) of 19.8 ± 2.74 % ID/g, a Brain ([1]; 1 h after administration) of 0.36 ± 0.05 % ID/g and a Heart ([1]; 1 h after administration) of 5.49 ± 0.77 % ID/g. The Intestine ([1]; 1 h after administration) was 2.66 ± 0.28 % ID/g, the Kidney ([1]; 1 h after administration) was 37.2 % ID/g and 37.2 ± 6.85 % ID/g and the “LNCaP Tumor” value ([1]; 1 h after administration) was 2.18 ± 0.17 % ID/g. For the same molecule, the Liver ([1]; 1 h after administration) was 3.51 ± 0.38 % ID/g, the Lung ([1]; 1 h after administration) was 11.9 ± 1.57 % ID/g and the Muscle ([1]; 1 h after administration) was 1.95 ± 0.30 % ID/g. The Pancreas ([1]; 1 h after administration) was 2.31 ± 0.14 % ID/g, the Spleen ([1]; 1 h after administration) was 15.3 ± 4.89 % ID/g and the “Stomach (% ID)” value ([1]; 1 h after administration) was 0.79 ± 0.19 % ID. It also gave a Blood ([1]; 24 h after administration) of 12.5 ± 1.47 % ID/g, a Brain ([1]; 24 h after administration) of 0.30 ± 0.05 % ID/g and a Heart ([1]; 24 h after administration) of 3.95 ± 0.87 % ID/g. For the same molecule, the Intestine ([1]; 24 h after administration) was 1.52 ± 0.41 % ID/g, the Kidney ([1]; 24 h after administration) was 68.0 ± 2.82 % ID/g and the “LNCaP Tumor” value ([1]; 24 h after administration) was 16.0 % ID/g and 16.0 ± 9.49 % ID/g. For the same molecule, the Liver ([1]; 24 h after administration) was 3.36 ± 0.77 % ID/g, the Lung ([1]; 24 h after administration) was 8.63 ± 1.31 % ID/g and the Muscle ([1]; 24 h after administration) was 1.28 ± 0.34 % ID/g. For the same molecule, the Pancreas ([1]; 24 h after administration) was 2.03 ± 0.48 % ID/g, the Spleen ([1]; 24 h after administration) was 9.69 ± 0.92 % ID/g and the “Stomach (% ID)” value ([1]; 24 h after administration) was 0.46 ± 0.23 % ID. For the same molecule, the Blood ([1]; 48 h after administration) was 6.33 ± 1.53 % ID/g, the Brain ([1]; 48 h after administration) was 0.20 ± 0.07 % ID/g and the Heart ([1]; 48 h after administration) was 1.98 ± 0.41 % ID/g. The Intestine ([1]; 48 h after administration) was 0.74 ± 0.28 % ID/g, the Kidney ([1]; 48 h after administration) was 55.9 ± 6.39 % ID/g and the “LNCaP Tumor” value ([1]; 48 h after administration) was 18.7 % ID/g and 18.7 ± 5.21 % ID/g. It also gave a Liver ([1]; 48 h after administration) of 2.28 ± 0.75 % ID/g, a Lung ([1]; 48 h after administration) of 6.16 ± 1.56 % ID/g and a Muscle ([1]; 48 h after administration) of 0.81 ± 0.40 % ID/g. The Pancreas ([1]; 48 h after administration) was 1.12 ± 0.39 % ID/g, the Spleen ([1]; 48 h after administration) was 10.5 ± 5.62 % ID/g and the “Stomach (% ID)” value ([1]; 48 h after administration) was 0.29 ± 0.20 % ID.

Reference: patent publication US20240174622A1, “COMPOUND AND RADIOACTIVE LABELING COMPOUND” (NIHON MEDI-PHYSICS CO., LTD., priority 2021, published 2024)
